Reference: patent publication US20230414735A1, “NEOANTIGENS AND METHODS OF THEIR USE” (priority 2016, published 2023)
Where two headings read alike, the source gives them in different places. Where no end group is shown, it is not given here.

Columns and labels:
[1] = test system: HLA Class I molecules; assay: HLA class I binding stability assay (pMHC-I complex dissociation, 125I-labeled β2m, scintillation counts); design: species or system human
Protocol: These reactions are carried out in streptavidin coated microplates to bind th biotinylated MHC-I heavy chains to the surface and allow measurement of radiolabeled light chain to monitor complex formation. Dissociation is initiated by addition of higher concentations of unlabled light-chain and incubation at 37° C. Stability is defined as the length of time in hours it takes for half of the complexes to dissociate, as measured by scintillation counts

[2] = biological target: HLA class I molecule; assay: HLA class I peptide binding affinity assay (inhibition of 125I-radiolabeled probe peptide binding to purified HLA); design: species or system human; conditions: read-out: Observed Affinity (IC50, (nM))
Protocol: Epstein-Barr virus (EBV)-transformed homozygous cell lines, fibroblasts, CIR, or 721.22 transfectants are used as sources of HLA class I molecules. […] HLA molecules are purified from lysates by affinity chromatography. The lysates are passed over a column of Sepharose CL-4B beads coupled to an appropriate antibody. […] A 1/25 volume of 2.0 M Tris, pH 6.8, is added to the eluate to reduce the pH to […]. Eluates are then concentrated by centrifugation in Centriprep 30 concentrators (Amicon, Beverly, MA). Protein content is evaluated by a BCA protein assay (Pierce Chemical Co., Rockford, IL) and confirmed by SDS-PAGE.
Following incubation, MHC-peptide complexes are separated from free peptide by gel filtration on 7.8 mm×15 cm TSK200 columns (TosoHaas 16215, Montgomeryville, PA). Because the large size of the radiolabeled peptide used for the DRB1*1501 (DR2w2(31) assay makes separation of bound from unbound peaks more difficult under these conditions, all DRB1*1501 (DR2w2(31) assays were performed using a 7.8 mm×30 cm TSK2000 column eluted at 0.6 mLs/min. The eluate from the TSK columns is passed through a Beckman 170 radioisotope detector, and radioactivity is plotted and integrated using a Hewlett-Packard 3396A integrator, and the fraction of peptide bound is determined.
Radiolabeled peptides are iodinated using the chloramine-T method. […] All subsequent inhibition and direct binding assays are performed using these HLA concentrations.
Since under these conditions [label]<[HLA] and IC50≥[HLA], the measured IC50 values are reasonable approximations of the true KD values. […] For database purposes, and inter-experiment comparisons, relative binding values are compiled. These values can subsequently be converted back into IC50 nM values by dividing the IC50 nM of the positive controls for inhibition by the relative binding of the peptide of interest.
HLA binding assays were used to evaluate either the affinity of interaction of a given epitope with a selected HLA molecule or the stability.
The measurements are plotted against the predicted affinity in FIG. 1.

[3] = allele A02.01, pMHC-I dissociation at 37° C.
[4] = allele A24.02, pMHC-I dissociation at 37° C.

| Compound | Stability (T1/2 (h)) ([1]; allele A02.01, 37° C.) [h] | IC50 ([2]; allele A02.01) [nM] | Stability (T1/2 (h)) [1, 3] [h] | further results |
| --- | --- | --- | --- | --- |
| CC(C)C[C@H](NC(=O)[C@H](C)N)C(=O)N[C@@H](CC(N)=O)C(=O)N[C@@H](CO)C(=O)N[C@@H](CCC(=O)O)C(=O)N[C@@H](C)C(=O)N[C@@H](CC(C)C)C(=O)N[C@@H](CO)C(=O)N[C@H](C(=O)N[C@H](C(=O)O)C(C)C)C(C)C | 2.9 | 15 |  |  |
| CC(C)C[C@H](NC(=O)CN)C(=O)N[C@H](C(=O)N[C@@H](CC(=O)O)C(=O)N[C@@H](CCC(=O)O)C(=O)N[C@@H](CCC(N)=O)C(=O)N[C@@H](CCC(N)=O)C(=O)N[C@@H](CCC(=O)O)C(=O)N[C@H](C(=O)O)C(C)C)C(C)C | 7.4 | 44 |  |  |
| C[C@H](NC(=O)[C@H](CO)NC(=O)[C@H](C)NC(=O)[C@@H]1CCCN1C(=O)[C@H](C)NC(=O)[C@@H]1CCCN1C(=O)[C@H](CCCNC(=N)N)NC(=O)[C@@H]1CCCN1C(=O)[C@@H](N)Cc1c[nH]cn1)C(=O)O |  |  |  | Stability (T1/2 (h)) ([1]; allele B07.02, 37° C.): 4.9 h |
| CC[C@H](C)[C@H](NC(=O)[C@@H](N)CC(C)C)C(=O)N[C@@H](CCSC)C(=O)N[C@@H](CCC(N)=O)C(=O)N[C@@H](CC(C)C)C(=O)N[C@@H](CCSC)C(=O)N1CCC[C@H]1C(=O)N[C@@H](Cc1ccccc1)C(=O)NCC(=O)N[C@@H](CS)C(=O)O |  | 177 | 0.4 |  |
| CC(C)C[C@H](N)C(=O)N1CCC[C@H]1C(=O)N[C@@H](CCCNC(=N)N)C(=O)N[C@@H](CCCCN)C(=O)N1CCC[C@H]1C(=O)N[C@H](C(=O)N[C@@H](CCCNC(=N)N)C(=O)N[C@@H](C)C(=O)N[C@@H](C)C(=O)O)[C@@H](C)O |  |  |  | Stability (T1/2 (h)) ([1]; allele B07.02, 37° C.): 5.5 h |
| CSCC[C@H](NC(=O)[C@H](Cc1c[nH]c2ccccc12)NC(=O)[C@H](Cc1c[nH]cn1)NC(=O)[C@H](CC(N)=O)NC(=O)[C@H](CCCNC(=N)N)NC(=O)[C@H](CCCNC(=N)N)NC(=O)[C@H](CCC(N)=O)NC(=O)[C@H](CO)NC(=O)[C@@H]1CCCN1C(=O)[C@@H](N)CC(C)C)C(=O)O |  |  |  | Stability (T1/2 (h)) ([1]; allele B07.02, 37° C.): 6.5 h; Stability (T1/2 (h)) ([1]; allele B08.01, 37° C.): 0.7 h |
| CC(C)[C@H](N)C(=O)N[C@H](C(=O)N1CCC[C@H]1C(=O)N[C@@H](CS)C(=O)N[C@@H](CCC(=O)O)C(=O)N1CCC[C@H]1C(=O)N1CCC[C@H]1C(=O)N[C@@H](CCC(=O)O)C(=O)N[C@H](C(=O)O)C(C)C)C(C)C | 0.9 | 187 |  |  |
| CC(C)C[C@H](NC(=O)[C@H](CC(C)C)NC(=O)[C@H](CC(C)C)NC(=O)CNC(=O)[C@H](Cc1ccc(O)cc1)NC(=O)[C@H](CC(C)C)NC(=O)[C@@H]1CCCN1C(=O)[C@@H](NC(=O)[C@@H](N)C(C)C)C(C)C)C(=O)O |  | 1040 | 0.6 |  |
| CC(C)C[C@H](NC(=O)[C@@H](NC(=O)[C@H](CC(=O)O)NC(=O)[C@H](CC(C)C)NC(=O)[C@@H](NC(=O)[C@@H](N)Cc1ccc(O)cc1)[C@@H](C)O)C(C)C)C(=O)N[C@@H](CCC(=O)O)C(=O)N[C@@H](CCCNC(=N)N)C(=O)N[C@@H](CS)C(=O)O | 6.6 | 1760 |  |  |
| CC(C)C[C@H](NC(=O)[C@H](C)NC(=O)[C@@H](NC(=O)[C@H](CCCNC(=N)N)NC(=O)[C@H](CO)NC(=O)[C@H](CC(=O)O)NC(=O)[C@H](CO)NC(=O)[C@H](CC(C)C)NC(=O)[C@@H](N)CCCCN)[C@@H](C)O)C(=O)O [KLSDSRTAL] | 2.8 |  |  | Stability (T1/2 (h)) ([1]; allele B07.02, 37° C.): 6.8 h |
| ALSASNSCF | 0.3 | 728 |  |  |
| ALSASNSCFI | 0.8 | 226 |  |  |
| ALSEHCPTT | 27.3 | 79 |  |  |
| CLADVLLSV |  | 219 | 24 |  |
| FSGEYIPTV | 6.8 | 3 |  |  |
| GLLAFWDSQV | 14.2 | 10 |  |  |
| GLLLEMLDA |  | 558 | 0.4 |  |
| GVYTFLPST |  | 779 | 1.3 |  |
| GVYTFLPSTL |  | 1200 | 0.4 |  |

| Compound | Stability (T1/2 (h)) ([1]; allele A02.01, 37° C.) [h] | IC50 ([2]; allele A02.01) [nM] | Stability (T1/2 (h)) [1, 3] [h] | further results |
| --- | --- | --- | --- | --- |
| IIIEYCFYG | 1.2 |  |  |  |
| ILMELMAGG |  | 223 | 0.5 |  |
| IMQLMPFGC |  | 1610 | 0.4 |  |
| KGPELFPLI |  | 101 | 0.3 | Stability (T1/2 (h)) [1, 4]: 1.7 h; IC50 ([2]; allele A24.02): 14 nM |
| KLFSCLSFL |  | 6 | 14.3 | Stability (T1/2 (h)) ([1]; allele A03.01, pMHC-I dissociation at 37° C.): 0.8 h |
| KLGGGQHGEV |  | 387 | 0.4 |  |
| KPTRAATVSV |  |  |  | Stability (T1/2 (h)) ([1]; allele B07.02, 37° C.): 3 h |
| KVLQMDFLV |  |  | 6.4 |  |
| KVSRENTSPK |  |  |  | Stability (T1/2 (h)) ([1]; allele A03.01, 37° C.): 13.5 h |
| LLAFWDSQV | 12.8 | 68 |  |  |
| LLQEFDVQEA | 2.5 | 45 |  |  |
| LMELMAGGDL |  | 311 | 8.9 |  |
| LPRKPTRAAT |  |  |  | Stability (T1/2 (h)) ([1]; allele B07.02, 37° C.): 3.7 h |
| LQMDFLVHPA |  | 68 | 1.5 |  |
| LVVVGACGV | 0.6 | 1210 |  |  |
| MNIANLLGA | 0.3 | 128 |  |  |
| MNWRPILTI | 3.8 |  |  |  |
| MNWRPILTII | 0.4 | 1030 |  |  |
| PLCDLLLEM |  | 602 | 0.8 |  |

| Compound | Stability (T1/2 (h)) ([1]; allele A02.01, 37° C.) [h] | IC50 ([2]; allele A02.01) [nM] | Stability (T1/2 (h)) [1, 3] [h] | further results |
| --- | --- | --- | --- | --- |
| PLCDLLLEML |  | 2010 | 0.9 |  |
| PLNDLLLEM |  | 151 | 4.2 |  |
| PLSDLLLEM |  | 404 | 2.7 |  |
| PLYGLLLEM |  | 640 | 0.7 |  |
| RVAKIADFGM |  | 125 | 0.5 | Stability (T1/2 (h)) ([1]; allele B07.02, pMHC-I dissociation at 37° C.): 0.2 h |
| SLYIVGFYGA | 0.4 | 390 |  |  |
| SMLTDSLFL | 9.8 | 31 |  |  |
| VLHECNSLYI | 5.1 | 10 |  |  |
| VLHESNSPYI | 1.9 | 131 |  |  |
| VLLSVHLIV |  | 72 | 11 |  |
| VLTVTSTDV | 1.1 | 295 |  |  |
| VMAGLGSPYV | 2.9 | 102 |  |  |
| VMAYVMAGV | 16.5 | 2 |  |  |
| WLHKRGKYI |  | 1250 | 1.2 | Stability (T1/2 (h)) ([1]; allele B08.01, pMHC-I dissociation at 37° C.): 1.3 h; IC50 ([2]; allele B08.01): 417 nM |
| WMTETLFDI | 4 | 14 |  |  |
| WMTETLFDIV | 0.4 | 40 |  | IC50 ([2]; allele A01.01): 14400 nM |
| YLGNHMNIA | 0.6 | 117 |  | IC50 ([2]; allele B08.01): 872 nM |
| YLVIQLQDKF |  | 2060 |  | Stability (T1/2 (h)) [1, 4]: 2.6 h; IC50 ([2]; allele A24.02): 2150 nM |
